Measured values: patent publication US20260207717A1, “METHODS FOR TREATING INFANTILE-ONSET POMPE DISEASE IN PEDIATRIC PATIENTS” (Amicus Therapeutics, Inc., priority 2022, published 2026)
Where two headings read alike, the source gives them in different places.

Tests used:
[1] = Miglustat plasma pharmacokinetics; format: in vivo, human; settings: 130 mg to 260 mg
Description: At the recommended 260 mg dose, the mean Cmax was approximately 3 mcg/mL and the mean AUC was approximately 25 mcg*hr/mL. The mean time to reach the maximum concentration ranged from 2 hours to 3 hours.

clinical = settings: human, in vivo
Description: At 10Y7M of age, the blood of the patient was collected to gather pharmacokinetic (PK) data for their treatment that included weekly administration of 20 mg/kg ATB200 and 130 mg AT2221.
Blood sampling of the patient was conducted to gather pharmacokinetic (PK) data for their treatment that included administration of 25 mg/kg ATB200 and 195 mg AT2221 biweekly.
At 12Y5M of age, the patient has been receiving ATB200 (20 mg/kg) and AT2221 (195 mg) biweekly for 1 year. […] At this time, the PK levels of both ATB200 and AT2221 were taken from the patient.

pediatric IOPD patient [2] = format: in vivo, human
Description: The patient, first-born of unrelated parents […]), was born at 37 weeks by an emergency delivery due to fetal heart failure. At birth, they were resuscitated and admitted to the NICU for invasive ventilatory assistance and circulation support.
Moreover, the patient presented with severe hypotonia, elevated serum CPK (1063 U/L) and BNP ([…], nv 0-100).
At 3 days of life, an extended newborn screening resulted positive for Pompe Disease (GAA activity in DBS 0.40 μM/L, nv>3). uGlc4 was elevated (71.2 mmol/mol creatinine, nv <16.3).
At 5 days of life, the patient was treated with alglucosidase alfa (Myozyme®). Simultaneously, an immunomodulation protocol with rituximab, ev immunoglobulins and methotrexate was started. In addition, an appropriate therapy for the heart failure was started (betablocker, diuretics, ACE inhibitor).
At 2.5 years of life, they started a compassionate use/EAP therapy that combined a new ERT (cipaglucosidase 30 mg/kg/week) with an enzyme stabilizer (miglustat 115 mg) (ATB200-15 Program, Amicus Therapeutics), with clinical benefit.

[3] = test system: pediatric patient with infantile Pompe disease; assay: Example 16: pediatric IOPD patient switched from Myozyme to ATB200/AT2221; format: in vivo, human
Text: A patient with severe infantile Pompe disease presented. The patient underwent a comprehensive physical examination, measurement of GAA enzyme activity, genetic testing of the GAA gene and muscle biopsy to establish the diagnosis.
The patient received the high-dose enzyme replacement therapy with Myozyme after diagnosis. The patient responded very poorly to therapy. Due to rapidly progressing Pompe disease and inadequate response to therapy, the patient's survival was at risk. For the patient, the opportunity arose to receive the new ATB200/AT2221 ERT via a compassionate use/Expanded Access Program (EAP).
The index patient has regular measurement of the urinary Glc4-levels since the change of the ERT to ATB200. The Glc4-levels were determined by an established method from the Duke University. The analysis of Glc4 is standardized as a butyl-4-aminobenzoate derivative using [^13C6] Glc4 as the internal standard (IS). The measurement is performed as ultra-performance liquid chromatography-tandem mass spectrometry (UPLC-MS/MS). The Glc4-values are then normalized to creatinine.
The patient presented with IOPD at 6 months and was started on the standard dose of Myozyme (20 mg/kg/bi-weekly). Due to the inadequate response to therapy, the dose was doubled just one month after the start of therapy in form of a weekly administration of Myozyme. […] But the cardiological situation deteriorated progressively.
Therefore, just three months after initiation of therapy, the dose was again doubled to 40 mg/kg/weekly, so the patient received a total of four times the standard dose. With the intensification of ERT and cardiac therapy, the patient's condition initially stabilized. Nevertheless, over the next few months, the patient's general condition steadily deteriorated, and the patient decompensated, especially respiratory.
The patient was switched from Myozyme to ATB200/AT2221 after eight months of insufficient Myozyme therapy response. The patient was […] at the time of the therapy switch. The new therapy (via EAP) was initiated with the oral administration of 30 mg premedication AT2221 (Miglustat) one hour prior to enzyme administration. ATB200 was administered at a bi-weekly interval at a dosage of 20 mg/kg. In the further course of treatment, the dosage of premedication and ERT was repeatedly adjusted and optimized (see Table 22). Some actual dosages in Table 22 (e.g., 37 mg/kg and 34.5 mg/kg at 32 and 38 months, respectively) varied from the target dose (e.g., 30 mg/kg) to avoid waste of extra material left in vials.
The Gross Motor Function Measure 66 (GMFM 66) is used to quantify a patients' motor skills. The GMFM 66 is a worldwide standardized test developed and validated for children with cerebral palsy to measure the development of gross motor function over time. During testing 66 items are examined and a score from 0 to 100 points is possible.

[4] = test system: single fibers isolated from the white gastrocnemius of Gaa KO mice; assay: Single fiber analysis (LAMP1/LC3 co-immunofluorescence); format: in vivo
Text: FIG. 17 depicts co-immunofluorescent staining of LAMP1 (green) (see for example, “B”) and LC3 (red) (see, for example, “A”) in single fibers isolated from the white gastrocnemius of Gaa KO mice treated with a vehicle, alglucosidase alfa, or ATB200. “C” depicts clearance of autophagic debris and absence of enlarged lysosome. A minimum of 30 fibers were examined from each animal.
As a result, a significant portion of muscle fibers analyzed (36-60%) from ATB200-treated mice appeared normal or near-normal.

CIMPR = CIMPR (Homo sapiens, UniProt P11717); assay: CIMPR affinity chromatography (bound vs unbound rhGAA by GAA activity); format: binding
CIMPR, sequence (P11717 41-2491, species assumed): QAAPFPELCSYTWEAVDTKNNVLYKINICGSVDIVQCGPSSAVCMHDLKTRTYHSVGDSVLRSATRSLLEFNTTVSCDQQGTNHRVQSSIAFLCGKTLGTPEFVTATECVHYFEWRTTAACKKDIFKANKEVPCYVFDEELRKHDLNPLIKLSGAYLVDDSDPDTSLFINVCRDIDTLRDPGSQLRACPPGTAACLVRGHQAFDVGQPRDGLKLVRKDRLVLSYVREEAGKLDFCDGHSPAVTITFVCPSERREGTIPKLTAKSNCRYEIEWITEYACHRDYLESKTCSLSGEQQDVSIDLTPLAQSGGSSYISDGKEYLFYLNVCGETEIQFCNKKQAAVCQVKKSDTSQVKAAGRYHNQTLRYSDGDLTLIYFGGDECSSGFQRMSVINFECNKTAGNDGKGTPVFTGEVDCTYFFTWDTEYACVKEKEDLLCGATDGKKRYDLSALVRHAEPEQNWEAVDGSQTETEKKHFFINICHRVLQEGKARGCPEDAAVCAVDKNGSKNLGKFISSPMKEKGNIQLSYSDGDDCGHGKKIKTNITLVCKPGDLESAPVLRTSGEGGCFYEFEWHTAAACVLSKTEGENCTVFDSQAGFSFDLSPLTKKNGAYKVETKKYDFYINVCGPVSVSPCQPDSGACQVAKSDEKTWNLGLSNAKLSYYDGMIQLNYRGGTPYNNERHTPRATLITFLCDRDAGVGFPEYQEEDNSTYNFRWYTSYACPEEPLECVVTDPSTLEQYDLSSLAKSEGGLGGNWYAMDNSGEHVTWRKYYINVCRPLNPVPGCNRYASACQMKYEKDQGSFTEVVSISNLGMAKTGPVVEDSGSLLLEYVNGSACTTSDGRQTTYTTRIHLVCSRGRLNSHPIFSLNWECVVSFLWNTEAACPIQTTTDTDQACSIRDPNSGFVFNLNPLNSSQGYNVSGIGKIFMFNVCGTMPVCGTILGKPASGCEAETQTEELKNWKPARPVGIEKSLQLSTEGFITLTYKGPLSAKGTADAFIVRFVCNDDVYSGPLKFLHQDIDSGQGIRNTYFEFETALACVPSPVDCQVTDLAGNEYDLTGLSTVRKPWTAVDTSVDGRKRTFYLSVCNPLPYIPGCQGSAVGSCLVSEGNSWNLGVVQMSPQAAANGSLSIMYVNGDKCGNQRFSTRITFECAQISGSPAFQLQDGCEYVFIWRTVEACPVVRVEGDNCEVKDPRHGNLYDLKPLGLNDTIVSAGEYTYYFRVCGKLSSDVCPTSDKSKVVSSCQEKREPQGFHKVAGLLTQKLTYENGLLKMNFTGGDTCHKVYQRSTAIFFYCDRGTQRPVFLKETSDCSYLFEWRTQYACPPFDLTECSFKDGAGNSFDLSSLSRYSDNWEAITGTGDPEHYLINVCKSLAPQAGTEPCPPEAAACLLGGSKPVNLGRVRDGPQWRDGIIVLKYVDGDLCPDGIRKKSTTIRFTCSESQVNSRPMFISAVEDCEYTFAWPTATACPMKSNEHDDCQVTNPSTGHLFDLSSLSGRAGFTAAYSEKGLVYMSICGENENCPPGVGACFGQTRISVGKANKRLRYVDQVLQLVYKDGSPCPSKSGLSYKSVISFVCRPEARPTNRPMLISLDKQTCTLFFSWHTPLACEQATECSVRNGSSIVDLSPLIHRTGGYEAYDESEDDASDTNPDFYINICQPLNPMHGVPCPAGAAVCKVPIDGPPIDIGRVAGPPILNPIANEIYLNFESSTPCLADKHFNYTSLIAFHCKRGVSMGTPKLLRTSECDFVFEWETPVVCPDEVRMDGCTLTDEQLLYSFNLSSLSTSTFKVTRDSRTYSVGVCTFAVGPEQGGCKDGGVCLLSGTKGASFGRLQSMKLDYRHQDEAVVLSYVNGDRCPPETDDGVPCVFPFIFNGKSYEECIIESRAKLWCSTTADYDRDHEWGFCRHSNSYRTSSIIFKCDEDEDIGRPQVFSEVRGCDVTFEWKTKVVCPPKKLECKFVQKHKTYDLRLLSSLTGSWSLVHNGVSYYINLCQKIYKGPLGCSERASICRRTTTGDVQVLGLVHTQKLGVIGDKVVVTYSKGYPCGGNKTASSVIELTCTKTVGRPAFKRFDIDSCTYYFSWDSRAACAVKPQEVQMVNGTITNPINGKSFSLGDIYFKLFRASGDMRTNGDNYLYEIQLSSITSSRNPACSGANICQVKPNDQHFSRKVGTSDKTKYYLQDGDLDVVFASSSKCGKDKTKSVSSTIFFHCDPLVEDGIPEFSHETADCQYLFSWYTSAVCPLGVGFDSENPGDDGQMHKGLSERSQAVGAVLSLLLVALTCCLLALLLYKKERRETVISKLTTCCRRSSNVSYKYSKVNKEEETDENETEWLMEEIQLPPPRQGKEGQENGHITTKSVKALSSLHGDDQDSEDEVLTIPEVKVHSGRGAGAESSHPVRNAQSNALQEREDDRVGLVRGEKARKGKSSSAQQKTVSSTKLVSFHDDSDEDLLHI
Text: Multiple batches of the rhGAA according to the disclosure were produced in shake flasks and in perfusion bioreactors using CHO cell line GA-ATB200, the product of which is referred to as “ATB200.” Weak anion exchange (“WAX”) liquid chromatography was used to fractionate ATB200 rhGAA according to terminal phosphate and sialic acid. Elution profiles were generated by eluting the ERT with increasing amount of salt. The profiles were monitored by UV (A280 nm).
To evaluate the ability of the conventional rhGAAs in MYOZYME® and LUMIZYME® to interact with the CIMPR, the two conventional rhGAA preparations were injected onto a CIMPR affinity column (which binds rhGAA having M6P groups) and the flow through collected. The bound material was eluted with a free M6 gradient. Fractions were collected in 96-well plate and GAA activity assayed by 4MU-α-glucosidase substrate. The relative amounts of unbound (flow through) and bound (M6P eluted) rhGAA were determined based on GAA activity and reported as the fraction of total enzyme. […] Indeed, only 27% of the rhGAA in MYOZYME® and 22% of the rhGAA in LUMIZYME® contained M6P that can be productive to target it to the CIMPR on muscle cells.

pediatric IOPD patient [5] = test system: pediatric IOPD patient
[6] = after new immunomodulation cycle, on Myozyme
[7] = worsening with high antibody titer, on Myozyme
[8] = age ~1 week, Myozyme double dose 40 mg/kg q2wk

CCCCN1C[C@H](O)[C@@H](O)[C@H](O)[C@H]1CO [miglustat, (2R,3R,4R,5S)-1-butyl-2-(hydroxymethyl)piperidine-3,4,5-triol, reference compound]
dose proportionality of AUC and Cmax [1]: linear pharmacokinetics
AUC relative to adult percentiles (clinical): below the adult 10th percentile
Cmax relative to adult percentiles (clinical): within the adult 10th-90th percentile
AUC (clinical; AT2221 AUC): 16100 to 24600 ng·h/mL
Cmax (clinical; AT2221 Cmax): 1800 to 3130 ng/mL

MYOZYME®: conventional rhGAA product containing alglucosidase alfa
CPK (pediatric IOPD patient [2]; [6]): 4,728 U/L
EF (pediatric IOPD patient [2]; [6]): 48%
LVMI (pediatric IOPD patient [2]; [6]): 118 g/m2
uGlc4 (pediatric IOPD patient [2]; [6]): 35 mmol/mol crea
CPK (pediatric IOPD patient [2]; on Myozyme): 1877 u/L
EF (pediatric IOPD patient [2]; on Myozyme): 50%
uGlc4 (pediatric IOPD patient [2]; on Myozyme): 20.2 mmol/mol crea
LVMI (pediatric IOPD patient [2]; on Myozyme since day 5): 116.6 g/m2
BNP (pediatric IOPD patient [2]; [7]): 237 U/L
EF (pediatric IOPD patient [2]; [7]): 50%
LVMI (pediatric IOPD patient [2]; [7]): 229 g/m2
serum CPK, maximum (pediatric IOPD patient [2]; [7]): 6,795 U/L
uGlc4, maximum (pediatric IOPD patient [2]; [7]): 50 mmol/mol creatinine
motor function ([3]; 20 mg/kg/weekly): slight motor improvements
response to therapy ([3]; fourfold dose of ERT (40 mg/kg/weekly)): very poor
lysosome size and autophagic buildup compared to vehicle-treated mice [4]: did not show any significant difference
rhGAA that binds to the CIMPR (contains M6P) (CIMPR; fraction of total enzyme by GAA activity): 27%
rhGAA that did not bind to the CIMPR (CIMPR; fraction of total enzyme by GAA activity (FIG. 9A, 9B)): 73%
CK (pediatric IOPD patient [5]; Myozyme 50 mg/kg q2wk): 2514-2722 U/L
CK (pediatric IOPD patient [5]; Myozyme 60 mg/kg q2wk): 3143-3625 U/L
LVEF (pediatric IOPD patient [5]; Myozyme 60 mg/kg q2wk, 2 D): 70.5%
LVMI (pediatric IOPD patient [5]; Myozyme 60 mg/kg q2wk, 2 D): 26.2 g/m^2
CK (pediatric IOPD patient [5]; Myozyme 30 then 40 mg/kg qwk): 2603 U/L
Pro-BNP (pediatric IOPD patient [5]; Myozyme 30 then 40 mg/kg qwk): 401.5 pg/mL
CK (pediatric IOPD patient [5]; [8]): 880 U/L
Glc4 (pediatric IOPD patient [5]; [8]): 41.88 mmol/mol CRE
Pro-BNP (pediatric IOPD patient [5]; [8]): 10169 pg/mL
LVMI (pediatric IOPD patient [5]; age ~1 week, Myozyme double dose 40 mg/kg q2wk, M-mode): 147 g/m^2
CK (pediatric IOPD patient [5]; change to ATB200 20 mg/kg q2w): 1444 U/L
reactions on ERT (pediatric IOPD patient [5]; human, in vivo): skin rash, dyspnea, a cough and a pale-like complexion
